{"source": "patent US8551951B2", "about": "“Pharmaceutical preparations and methods for inhibiting tumors” (Aenorasis SA Pharmaceuticals and Medical Devices, priority 2000, dated 2013)", "key": {"[1]": {"system": "PC-3 cells", "assay": "DNA fragmentation assay (DNA ladder, apoptosis)", "format": "cell-based, human", "settings": "for DNA laddering effect: various concentrations", "procedure,_shortened": "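PC-3 cells were exposed for 72 h to the polypeptides at various concentrations, PCK3145 at 500 μg/ml in supplemented medium; untreated cells and doxorubicin served as controls. Isolated DNA was run on 1.2% agarose with ethidium bromide, and a DNA ladder was scored as apoptotic fragmentation.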"}, "[2]": {"system": "Dunning Mat Ly Lu tumors", "assay": "Studies MLL-5 and MLL-6, Mat Ly Lu tumor implanted in Copenhagen rats", "format": "in vivo", "procedure": "Anti-tumor efficacy evaluation of PCK3145 against Mat Ly Lu (MLL) tumor implanted in Copenhagen rats was performed. (Protocol based on S. Garde et al.; The Prostate, 22: 225-233, 1993). Mat LyLu tumor cells were harvested in mid-log phase from the culture flasks by trypsinization, were centrifuged at 1200 rotation per minute (rpm) and washed three timed with Hanks balanced salt solution (HBSS). Following washing, cells were counted and adjusted to a concentration of 5×10^6 cells/ml in HBSS. A 0.1 ml volume of tumor cell inoculum containing 5×10^5 cells was administered subcutaneously into the flank region of each rat. Treatment started at day 3 post-tumor implantation (p.t.i) by local subcutaneous injection (i.e., in the shaved back area just below tumor implantation site) of various PCK3145 concentrations. This treatment was continued daily for 16 days. Experiments were terminated 24 hours after the last treatment. Tumor measurements were taken at days 7, 9, 11, 14, 16 and 18. Tumor volumes are calculated according to formula (a×b^2×0.5), where a—is the length of the long diameter, b—width of the perpendicular small diameter. At day 19 tumors of individual rats were excised and weighed.\nStudy No: MLL-5 illustrates the efficacy of PCK3145 (SEQ ID NO: 5) compared with polypeptide 7-21 (SEQ ID NO: 4) and polypeptide 76-94 (SEQ ID NO: 6) in tumor growth retardation in Copenhagen rats, which have received Mat Ly Lu implants. Mice were separated in different groups, each receiving various amount of PCK3145 (SEQ ID NO: 5) or control reagents. PCK3145 was injected through the subcutaneous route. The different groups used in these experiments are illustrated in table 8 below. Each group contained 8 mice.\nStudy No: MLL-6 illustrates the efficacy of PCK3145 (SEQ ID NO: 5) in tumor growth retardation in Copenhagen rats, which have received Mat Ly Lu implants. Mice were separated in different group each receiving various amounts of PCK3145 (SEQ ID NO: 5) or control reagents. PCK3145 was injected through the subcutaneous route. The different groups used in these experiments are illustrated in table 9 below. Each group contained 8 mice. Doxorubicin was administered as single bolus via intra-venous injection on day 3 p.t.i."}, "[3]": {"system": "PC-3 cells", "assay": "Apoptosis assay by ELISA plus", "format": "cell-based, human", "settings": "for apoptotic cell death effect: 22.5 μM to 90 μM, 72 hours", "procedure": "The three polypeptides (SEQ ID NO: 4, SEQ ID NO: 5 and SEQ ID NO 6) and native PSP94 used here as a positive control were tested in ELISA plus assay to measure cell death through apoptosis. Briefly, the ELISA plus assay is a sandwich enzyme immunoassay able to measure mono- and oligonucleosomes present in the cytoplasmic fraction of cell lysate using two antibodies, one directed against DNA and the other directed against histones. The apoptotic cell death is characterized by activation of endogenous endonucleases (e.g., calcium- and magnesium-dependant), which cleave double-stranded DNA at the most accessible internucleosomal linker region, generating mono- and oligonucleosomes. The enrichment of mono- and oligonucleosomes in the cytoplasm of the apoptotic cells is due to the fact that DNA degradation occurs several hours before plasma membrane breakdown.\nFour thousand cells were seeded in Costar 96 well cell culture flat bottom plates in RPMI supplemented media containing 50 μg/ml of bovine serum albumin (BSA) and 0.1 μM FeSO4. The PC-3 cells were treated with various concentrations (22.5 μM to 90 μM) of polypeptides for 72 hours. Apoptosis assay was done as per manufacturer's instructions using the ApopTag kit (Boeringher Mannheim)."}, "[4]": {"system": "PC-3 cells", "assay": "[^3H]-Thymidine uptake assay", "format": "cell-based, human", "settings": "GMP grade", "procedure": "The in vitro growth inhibition effect of rHuPSP94 was assessed using [^3H]-Thymidine uptake assay. [^3H]-Thymidine uptake assay involves [^3H]-Thymidine incorporation into cellular DNA of actively proliferating cells. It measures the proliferative index of the cells versus the MTS assay, which quantifies the number of lived cells following treatment. Cells were seeded in Costar 96 well cell culture flat bottom plates in RPMI supplemented media containing 50 μg/ml of bovine serum albumin (BSA) and 0.1 μM FeSO4. PC-3 cells were exposed to various concentrations of rHuPSP94 for 72 hours and during the final 16 hours of incubation cells were pulsed with 1 μCi of [^3H]-Thymidine. The radioactivity in each well of the plate is counted by a beta-counter and is expressed as total counts per minutes (cpm). Results of in vitro effect of rHuPSP94 on PC-3 cells using the ^3[H]-Thymidine uptake assay are summarized in Table 3 and are expressed as percentage of radioactivity measured for treated-cells relative to the radioactivity measured for non-treated cells (for which [^3H]-thymidine uptake value was set at 100%).\n[^3H]-Thymidine uptake assay involves [^3H]-Thymidine incorporation into cellular DNA of actively proliferating cells. [^3H]-Thymidine uptake assay measures the proliferative index of the cells versus the MTS assay, which quantifies the number of lived cells following treatment. The anti-proliferative effects of PCK3145 and two other synthetic polypeptides derived from the amino and carboxy terminus ends of PSP94 (SEQ ID NO: 4 and NO: 6, respectively) as well as the decapeptide (SEQ ID NO: 3) previously shown to mimic the biological action of native PSP94 were assessed in [H3]-Thymidine uptake assay on PC-3 cells. Two separate experiments were conducted with GMP-grade PCK3145."}}, "note": "Peptide text beside a SMILES is read from it.", "data": [{"molecule": "C[C@@H](O)[C@H](NC(=O)[C@H](CCC(=O)O)NC(=O)[C@H](Cc1ccc(O)cc1)NC(=O)[C@H](CS)NC(=O)[C@@H](NC(=O)[C@H](CS)NC(=O)[C@@H](NC(=O)[C@H](CCC(=O)O)NC(=O)[C@H](CS)NC(=O)[C@H](CC(N)=O)NC(=O)[C@H](CC(=O)O)NC(=O)[C@@H](NC(=O)[C@H](CCC(N)=O)NC(=O)[C@H](Cc1c[nH]c2ccccc12)NC(=O)[C@@H](N)CCC(=O)O)[C@@H](C)O)[C@@H](C)O)[C@@H](C)O)C(=O)O", "note": "[PCK3145, EWQTDNCETCTCYET] (H-EWQTDNCETCTCYET-OH; N-terminus and C-terminus assumed)", "values": [{"measurement": "DNA laddering effect (FIG. 7 lane 5)", "setting": "[1]; 22.5 μM", "value": "DNA laddering effect"}, {"measurement": "DNA laddering effect (FIG. 7 lane 6)", "setting": "[1]; 45 μM", "value": "DNA laddering effect"}, {"measurement": "DNA fragmentation (FIG. 25)", "setting": "[1]; 500 μg/ml, 72 hours, supplemented media", "value": "resulted in DNA fragmentation"}, {"measurement": "DNA laddering effect", "setting": "[1]; 72 hours", "value": "induced a DNA laddering effect characteristic of apoptosis"}, {"measurement": "anti-tumor effect (tumor volume), study MLL-5", "setting": "[2]; 1 μg/kg/day s.c.", "value": "No significant effect"}, {"measurement": "anti-tumor effect (tumor volume), study MLL-5", "setting": "[2]; 10 μg/kg/day s.c., days 11, 13, 16, 18", "value": "significant anti-tumor effect"}, {"measurement": "tumor volume reduction over control, study MLL-6", "setting": "[2]; 100 μg/kg/day s.c., days 14, 16 and 18", "value": 31, "unit": "%"}, {"measurement": "difference in tumor weight between control and treated group, study MLL-6", "setting": "[2]; 100 μg/kg/day, day 18 p.t.i", "value": 20, "unit": "gram"}, {"measurement": "tumor weight, study MLL-6", "setting": "[2]; 100 μg/kg/day, day 18 p.t.i, control 56.6 g", "value": 37.2, "unit": "g"}, {"measurement": "reduction in tumor mass, study MLL-6", "setting": "[2]; 100 μg/kg/day, day 18 p.t.i, p=0.0003", "value": 34, "unit": "%"}, {"measurement": "anti-tumor effect, study MLL-6", "setting": "[2]; 10 and 100 μg/kg/day s.c.", "value": "significant dose-dependent anti-tumor effect"}, {"measurement": "apoptotic cell death effect", "setting": "[3]", "value": "dose dependent increase in the apoptotic cell death effect"}, {"measurement": "apoptotic cell death, potency relative to the other polypeptides", "setting": "[3]; 90 μM", "value": "more potent than the other polypeptides"}, {"measurement": "reduction in [^3H]-Thymidine uptake", "setting": "[4]; 200 μg/ml, first experiment", "value": "~40", "unit": "%"}, {"measurement": "inhibition of [^3H]-Thymidine uptake", "setting": "[4]; 400 μg/ml, second experiment", "value": 25, "unit": "%"}]}, {"molecule": "polypeptide 7-21: PSP94 derived synthetic polypeptide from the amino terminus end, SEQ ID NO: 4 (NEGVPGDSTRKCMDL; Polypeptide 7-21)", "values": [{"measurement": "DNA laddering effect", "setting": "[1]; 72 hours", "value": "induced a DNA laddering effect characteristic of apoptosis"}, {"measurement": "anti-tumor effect (tumor volume), study MLL-5", "setting": "[2]; s.c., days 13, 16, 18, dose not given", "value": "comparable anti-tumor effect"}, {"measurement": "apoptotic cell death effect", "setting": "[3]", "value": "dose dependent increase in the apoptotic cell death effect"}]}]}
